As usually defined, the pIC50 is the IC50 on a negative log10 scale, so that one unit is a factor of ten.

The values below come from ChEMBL document CHEMBL4411300 (Eur J Med Chem, 2019).

Data set [1] in a line: Hepatotoxicity in Balb/c mouse infected with Trypanosoma cruzi MHOM/Pe/2011/Arequipa DTU 5 trypomastigotes assessed as increase in serum ALT to GPT level at 20 mg/kg, po once daily for 5 consecutive days starting from day 10 post infection measured on day 16 post infection relative to control. The data set is classed as toxicity, organism-based. Particulars: in vivo.
Data set [2] relates to Trypanosoma cruzi. The data set can be described thus: Antitrypanosomal activity against Trypanosoma cruzi MHOM/Pe/2011/Arequipa DTU 5 trypomastigotes infected in Balb/c mouse assessed as reduction in parasitaemia level at 20 mg/kg, po once daily for 5 consecutive days starting from day 10 post infection measured on day 23 post infection by Neubauer chamber method relative to control. The data set is classed as functional.

A short description of data set [3]: Hepatotoxicity in Balb/c mouse infected with Trypanosoma cruzi MHOM/Pe/2011/Arequipa DTU 5 trypomastigotes assessed as increase in total bilirubin level at 20 mg/kg, po once daily for 5 consecutive days starting from day 75 post infection measured on day 81 post infection relative to control. The data set is classed as toxicity, organism-based. Particulars: in vivo.

Data set [4] deals with Trypanosoma cruzi. The data set can be described thus: Antitrypanosomal activity against Trypanosoma cruzi MHOM/Pe/2011/Arequipa DTU 5 trypomastigotes infected in Balb/c mouse assessed as parasite-free bone marrow at 20 mg/kg, po pretreated once daily for 5 consecutive days starting from day 75 post infection followed by cyclophosphamide-induced immunosuppression on day 100 post infection every 4 days for a maximum of 3 doses measured on day 127 post infection by PCR method. The data set is classed as functional.

Data set [5] is described as follows: Cardiotoxicity in Balb/c mouse infected with Trypanosoma cruzi MHOM/Pe/2011/Arequipa DTU 5 trypomastigotes assessed as decrease in serum LDH level at 20 mg/kg, po once daily for 5 consecutive days starting from day 75 post infection measured on day 127 post infection relative to control. The class given is toxicity, organism-based. Also on record: scale not given: the % may be the effect or the level left. Particulars: in vivo.

Data set [6] deals with Trypanosoma cruzi. The data set is described as follows: Antitrypanosomal activity against Trypanosoma cruzi MHOM/Pe/2011/Arequipa DTU 5 trypomastigotes infected in Balb/c mouse assessed as parasite-free adipose tissue at 20 mg/kg, po pretreated once daily for 5 consecutive days starting from day 75 post infection followed by cyclophosphamide-induced immunosuppression on day 100 post infection every 4 days for a maximum of 3 doses measured on day 127 post infection by PCR method. The data set is classed as functional.

Data set [7] is described as follows: Cardiotoxicity in Balb/c mouse infected with Trypanosoma cruzi MHOM/Pe/2011/Arequipa DTU 5 trypomastigotes assessed as decrease in ratio of creatine kinase in muscle to brain at 20 mg/kg, po once daily for 5 consecutive days starting from day 75 post infection measured on day 81 post infection relative to control. The data set is classed as toxicity, organism-based. Also on record: scale not given: the % may be the effect or the level left. Particulars: in vivo.

Data set [8] in a line: Selectivity index, ratio of IC50 for African green monkey Vero cells to IC50 for Trypanosoma cruzi MHOM/Pe/2011/Arequipa DTU 5 trypomastigotes derived from infected Balb/c albino mouse. The class given is toxicity. Particulars: read-out: Ratio IC50.
A short description of data set [9]: Inhibition of Trypanosoma cruzi MHOM/Pe/2011/Arequipa DTU 5 epimastigotes Fe-SOD by UV-Visible spectrophotometric method.
The nature of data set [10]: Hepatotoxicity in Balb/c mouse infected with Trypanosoma cruzi MHOM/Pe/2011/Arequipa DTU 5 trypomastigotes assessed as decrease in ratio of serum AST to GOT level at 20 mg/kg, po once daily for 5 consecutive days starting from day 75 post infection measured on day 81 post infection relative to control. The class given is toxicity, organism-based. Set-up: scale not given: the % may be the effect or the level left. Particulars: in vivo.

A short description of data set [11]: Toxicity in Balb/c mouse assessed as reduction in body mass at 20 mg/kg, po once daily for 5 consecutive days starting from day 10 post infection relative to control. The class given is organism-based. Also on record: scale not given: the % may be the effect or the level left. Particulars: in vivo.
Data set [12] in a line: Nephrotoxicity in Balb/c mouse infected with Trypanosoma cruzi MHOM/Pe/2011/Arequipa DTU 5 trypomastigotes assessed as change in serum urea level at 20 mg/kg, po once daily for 5 consecutive days starting from day 10 post infection measured on day 127 post infection (reference value: 31 mg/dl). Particulars: in vivo. The class given is toxicity, organism-based.
The target of data set [13] is Superoxide dismutase [Cu-Zn] (Homo sapiens, UniProt P00441). The data set can be described thus: Inhibition of human erythrocyte CuZn-SOD by UV-Visible spectrophotometric method.
The nature of data set [14]: Toxicity in Balb/c mouse assessed as death at 20 mg/kg, po once daily for 5 consecutive days starting from day 75 post infection. Particulars: in vivo. The class given is organism-based.
The nature of data set [15]: Toxicity in Balb/c mouse assessed as reduction in body mass at 20 mg/kg, po once daily for 5 consecutive days starting from day 75 post infection relative to control. The data set is classed as organism-based. Set-up: scale not given: the % may be the effect or the level left. Particulars: in vivo.
Data set [16] is described as follows: Selectivity index, ratio of IC50 for African green monkey Vero cells to IC50 for Trypanosoma cruzi IRHOD/CO/2008/SN3 DTU 1 epimastigotes. The data set is classed as toxicity. Particulars: read-out: Ratio IC50.
A short description of data set [17]: Selectivity index, ratio of IC50 for African green monkey Vero cells to IC50 for Trypanosoma cruzi IRHOD/CO/2008/SN3 DTU 1 amastigotes infected in African green monkey Vero cells. Particulars: read-out: Ratio IC50. The data set is classed as toxicity.
Data set [18] concerns Trypanosoma cruzi. The data set can be described thus: Trypanocidal activity against Trypanosoma cruzi IRHOD/CO/2008/SN3 DTU 1 trypomastigotes derived from infected Balb/c albino mouse after 24 hrs by resazurin dye based assay. The class given is functional, organism-based. Particulars: IRHOD/CO/2008/SN3 DTU 1, 24 h. In general terms: The colour change of resazurin is a common sign of viable cells or microbes.

A short description of data set [19]: Selectivity index, ratio of IC50 for African green monkey Vero cells to IC50 for Trypanosoma cruzi IRHOD/CO/2008/SN3 DTU 1 trypomastigotes derived from infected Balb/c albino mouse. The data set is classed as toxicity. Particulars: read-out: Ratio IC50.
A short description of data set [20]: Selectivity index, ratio of IC50 for African green monkey Vero cells to IC50 for Trypanosoma cruzi TINF/CH/1956/Tulahuen DTU 6 amastigotes infected in African green monkey Vero cells. The data set is classed as toxicity. Particulars: read-out: Ratio IC50.
Data set [21] is described as follows: Hepatotoxicity in Balb/c mouse infected with Trypanosoma cruzi MHOM/Pe/2011/Arequipa DTU 5 trypomastigotes assessed as change in alkaline phosphatase level at 20 mg/kg, po once daily for 5 consecutive days starting from day 75 post infection measured on day 127 post infection (reference value: 149 U/L). The data set is classed as toxicity, organism-based. Particulars: in vivo.

The test system of data set [22] is Vero. The data set is described as follows: Cytotoxicity against African green monkey Vero cells assessed as reduction in cell viability after 48 to 72 hrs by resazurin dye based assay. Particulars: Chlorocebus sabaeus.
The test system of data set [23] is Trypanosoma cruzi. The data set is described as follows: Antitrypanosomal activity against Trypanosoma cruzi MHOM/Pe/2011/Arequipa DTU 5 trypomastigotes infected in Balb/c mouse assessed as reduction in Ig-G level in serum at 20 mg/kg, po pretreated once daily for 5 consecutive days starting from day 75 post infection followed by cyclophosphamide-induced immunosuppression on day 100 post infection every 4 days for a maximum of 3 doses measured on day 127 post infection by ELISA. The data set is classed as functional, organism-based. For orientation: ELISA stands for enzyme-linked immunosorbent assay.

The test system of data set [24] is Trypanosoma cruzi. The data set can be described thus: Antitrypanosomal activity against Trypanosoma cruzi MHOM/Pe/2011/Arequipa DTU 5 epimastigotes assessed as effect on parasite glycolytic pathway by measuring decrease in acetate excretion at IC25 after 72 hrs by 1H NMR method. The class given is functional, organism-based.
Data set [25] has as its system Trypanosoma cruzi. The data set can be described thus: Trypanocidal activity against Trypanosoma cruzi MHOM/Pe/2011/Arequipa DTU 5 amastigotes infected in African green monkey Vero cells assessed as reduction in number of amastigotes per infected cells at log -0.41 to 1.7 after 72 hrs by Giemsa-staining based assay. The data set is classed as functional, organism-based.

For data set [26], the system named is Trypanosoma cruzi. The data set can be described thus: Antitrypanosomal activity against Trypanosoma cruzi MHOM/Pe/2011/Arequipa DTU 5 epimastigotes assessed as effect on parasite glycolytic pathway by measuring decrease in D-lactate excretion at IC25 after 72 hrs by 1H NMR method. The class given is functional, organism-based.
For data set [27], the system named is Trypanosoma cruzi. The data set is described as follows: Trypanocidal activity against Trypanosoma cruzi MHOM/Pe/2011/Arequipa DTU 5 amastigotes infected in African green monkey Vero cells after 72 hrs by Giemsa-staining based microscopic assay. Particulars: MHOM/Pe/2011/Arequipa DTU 5, Vero. The data set is classed as functional, organism-based.

pIC50: −log10 of the molar value. The source made the active and inactive calls. No cut-off for these calls is given here.

Superoxide dismutase [Cu-Zn], sequence (P00441 whole entry): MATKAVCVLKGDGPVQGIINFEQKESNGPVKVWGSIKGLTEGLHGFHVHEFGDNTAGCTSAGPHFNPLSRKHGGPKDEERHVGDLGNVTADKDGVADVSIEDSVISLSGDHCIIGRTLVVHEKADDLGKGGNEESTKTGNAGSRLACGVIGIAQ

Take `O=C(Cn1ccnc1[N+](=O)[O-])NCc1ccccc1` [BENZNIDAZOLE]: the Activity in [1] is above 40%; in [3], “<= 30%”; in data set [4] it was 75%; in [5] it was “<= 10%”; in data set [6] it was 51.2%; in data set [7], “<= 10%”. For the same molecule, the outcome in data set [2] was Active.

For `Cl.Cl.Cl.NCCN(CCN)CCNCc1ccc2c(c1)Cc1ccccc1-2`, the selectivity ratio in [8] worked out at 120; in data set [16], 91.3; in data set [17] it was 89.6; in data set [19], 142; in data set [20], 117. Besides, the pIC50 is 4.24 in [9]; below 4.00 in data set [13]; 4.91 in data set [18]; 2.75 in data set [22]; 5.32 in data set [27]. Besides, the Activity entry is “<= 10%” in data set [10]; below 10% in [11]; 34 mg/dL in data set [12]; 72% in [2]; “Non-Toxic” in data set [14]; below 10% in data set [15]. Moreover, the Activity in data set [21] is reported as 149 U/L; in data set [4] it was 5.9%; in data set [5] it was “<= 10%”; in data set [6], 16.3%; in [7], “<= 10%”. The result in data set [23], in data set [24], in [25] and in [26] was Active.

As to `Cl.Cl.Cl.Cl.Cl.Cl.c1ccc2nc(CNCCN(CCNCc3ccc4ccccc4n3)CCNCc3ccc4ccccc4n3)ccc2c1`, the selectivity ratio in data set [8] turned out to be 1360; in data set [16], 112; in data set [17], 1020; in data set [19], 1560; in data set [20], 707. Besides, the pIC50 in [9] was 4.54; in data set [13], below 4.00; in data set [18] it was 5.96; in [22] it was 2.81; in data set [27], 5.62. Moreover, the Activity result in data set [10] is “<= 10%”; in [1] it was above 40%; in [11] it was below 10%; in data set [12] it was 34 mg/dL; in [14], “Non-Toxic”; in [15] it was below 10%. In addition, the Activity result in data set [3] is recorded as “<= 30%”; in [21], 149 U/L. Besides, the result in data set [23] was inactive. For the same molecule, the outcome in data set [24], in [25] and in data set [26] was Active.
